Molecular target: T1, Prolyl endopeptidase FAP (Homo sapiens, UniProt Q12884)
T1 sequence (Q12884 whole entry): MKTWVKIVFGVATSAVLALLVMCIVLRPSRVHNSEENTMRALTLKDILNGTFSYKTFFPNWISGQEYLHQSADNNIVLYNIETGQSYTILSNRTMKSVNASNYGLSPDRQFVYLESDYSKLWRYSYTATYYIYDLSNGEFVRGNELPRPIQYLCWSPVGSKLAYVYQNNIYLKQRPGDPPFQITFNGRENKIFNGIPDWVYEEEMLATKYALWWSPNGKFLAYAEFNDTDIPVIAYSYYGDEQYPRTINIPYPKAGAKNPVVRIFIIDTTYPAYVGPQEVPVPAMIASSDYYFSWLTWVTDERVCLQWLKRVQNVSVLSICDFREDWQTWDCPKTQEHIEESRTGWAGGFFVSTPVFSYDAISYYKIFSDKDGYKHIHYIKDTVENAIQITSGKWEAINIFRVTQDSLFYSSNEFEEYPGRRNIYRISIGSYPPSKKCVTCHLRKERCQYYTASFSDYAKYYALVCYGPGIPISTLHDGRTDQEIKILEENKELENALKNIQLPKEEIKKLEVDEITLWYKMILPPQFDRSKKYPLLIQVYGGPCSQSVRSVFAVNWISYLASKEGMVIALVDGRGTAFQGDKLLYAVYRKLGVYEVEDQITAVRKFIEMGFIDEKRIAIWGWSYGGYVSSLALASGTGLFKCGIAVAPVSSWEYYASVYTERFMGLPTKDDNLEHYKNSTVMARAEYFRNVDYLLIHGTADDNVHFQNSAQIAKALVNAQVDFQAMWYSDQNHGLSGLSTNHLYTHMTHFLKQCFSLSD
Experiment: hFAP Binding Assay
Conditions: for kon: read-out: kon (M-1-s-1)
Method: Table 1: Compounds were tested in a direct binding assay using 8K surface plasmon resonance biosensor (GE Healthcare) at 20° C. Immobilization of hFAP (M39-A757) on a CMD200M sensor chip (Xantec) was performed using standard amine coupling procedure in immobilization buffer (10 mM HEPES, 150 mM NaCl, 0.05% Tween20, pH 7.4). The surface was washed with 10 mM NaOH, 1M NaCl before being activated with EDC/NHS (GE Healthcare), followed by immobilization of hFAP (in 10 mM Acetate pH 5.0). Finally, the surface was deactivated by ethanolamine. Immobilization levels of hFAP were around 4000-6000 RU. The reference spot was treated as described, omitting the injection of hFAP. Compound concentration series were injected over the immobilized protein in increasing concentrations (2-500 nM) using single cycle kinetics in running buffer (20 mM TRIS, 150 mM NaCl, 0.05% Tween20, 1% DMSO, pH 7.4).

## CC1CC2(C1)CN(c1ccc3nccc(C(=O)NCC(=O)N4CSC[C@H]4C#N)c3c1)C2 [US20230312550, Example 149]
  koff: 3.9e-05 s⁻¹
  kon: 4.8e+06 M⁻¹ s⁻¹

## COc1ccc(-c2ccc3nccc(C(=O)NCC(=O)N4CSC[C@H]4C#N)c3c2)cn1 [US20230312550, Example 178]
  koff: 0.00017 s⁻¹
  kon: 3.1e+06 M⁻¹ s⁻¹

## N#C[C@@H]1CSCN1C(=O)CNC(=O)c1ccnc2ccc(N3CC(C(F)F)C3)cc12 [US20230312550, Example 28]
  koff: 0.00011 s⁻¹
  kon: 1.1e+06 M⁻¹ s⁻¹

## COC[C@@H]1CN(c2ccc3nccc(C(=O)NCC(=O)N4CSC[C@H]4C#N)c3c2)CCO1 [US20230312550, Example 93]
  koff: 8e-05 s⁻¹
  kon: 1.8e+06 M⁻¹ s⁻¹

## COCC1(C)CN(c2ccc3nccc(C(=O)NCC(=O)N4CSC[C@H]4C#N)c3c2)C1 [US20230312550, Example 29]
  koff: 6.1e-05 s⁻¹
  kon: 1.1e+06 M⁻¹ s⁻¹

## C[C@H]1CC(F)(F)CCN1c1ccc2nccc(C(=O)NCC(=O)N3CSC[C@H]3C#N)c2c1 [US20230312550, Example 44]
  koff: 7.2e-05 s⁻¹
  kon: 1.7e+06 M⁻¹ s⁻¹

## N#C[C@@H]1CSCN1C(=O)CNC(=O)c1ccnc2ccc(N3CCOC[C@@H]3C(F)(F)F)cc12 [US20230312550, Example 85]
  koff: 0.00011 s⁻¹
  koff (s-1): 0.00011 s⁻¹

## CC1(C)CCCN1c1ccc2nccc(C(=O)NCC(=O)N3CSC[C@H]3C#N)c2c1 [US20230312550, Example 57]
  koff: 0.00018 s⁻¹
  kon: 8e+06 M⁻¹ s⁻¹

## C[C@@H]1CCCN(c2ccc3nccc(C(=O)NCC(=O)N4CSC[C@H]4C#N)c3c2)C1=O [US20230312550, Example 204]
  koff: 5.8e-05 s⁻¹
  kon: 850000 M⁻¹ s⁻¹

## CC1(C)COC12CN(c1ccc3nccc(C(=O)NCC(=O)N4CSC[C@H]4C#N)c3c1)C2 [US20230312550, Example 18]
  koff: 5.9e-05 s⁻¹
  kon: 1.4e+06 M⁻¹ s⁻¹

## N#C[C@@H]1CSCN1C(=O)CNC(=O)c1ccnc2ccc(-n3ccc4c3CCCC4)cc12 [US20230312550, Example 219]
  koff: 0.0002 s⁻¹
  kon: 2.4e+06 M⁻¹ s⁻¹

## N#C[C@@H]1CSCN1C(=O)CNC(=O)c1ccnc2ccc(N3CCCCC3)cc12 [US20230312550, Example 32]
  koff: 2.9e-05 s⁻¹
  kon: 1.3e+06 M⁻¹ s⁻¹

## CCC1(OC)CCN(c2ccc3nccc(C(=O)NCC(=O)N4CSC[C@H]4C#N)c3c2)CC1 [US20230312550, Example 191]
  koff: 3.3e-05 s⁻¹
  kon: 1.5e+06 M⁻¹ s⁻¹

## CO[C@@H]1CCN(c2ccc3nccc(C(=O)NCC(=O)N4CSC[C@H]4C#N)c3c2)C1 [US20230312550, Example 161]
  koff: 0.00028 s⁻¹
  kon: 1.4e+07 M⁻¹ s⁻¹

## C[C@H]1CCCN(c2ccc3nccc(C(=O)NCC(=O)N4CSC[C@H]4C#N)c3c2)C1=O [US20230312550, Example 203]
  koff: 6.3e-05 s⁻¹
  kon: 440000 M⁻¹ s⁻¹

## N#C[C@@H]1CSCN1C(=O)CNC(=O)c1ccnc2ccc(N3CC(C(F)(F)F)C3)cc12 [US20230312550, Example 26]
  koff: 6.5e-05 s⁻¹
  kon: 1.3e+06 M⁻¹ s⁻¹

## C[C@]1(F)CCN(c2ccc3nccc(C(=O)NCC(=O)N4CSC[C@H]4C#N)c3c2)C1 [US20230312550, Example 198]
  koff: 0.00011 s⁻¹
  kon: 2.9e+06 M⁻¹ s⁻¹

## N#C[C@@H]1CSCN1C(=O)CNC(=O)c1ccnc2ccc(-c3ccnc(F)c3)cc12 [US20230312550, Example 124]
  koff: 0.00028 s⁻¹
  kon: 3e+06 M⁻¹ s⁻¹

## N#C[C@@H]1CSCN1C(=O)CNC(=O)c1ccnc2ccc(N3CC(CC(F)F)C3)cc12 [US20230312550, Example 144]
  koff: 0.00051 s⁻¹
  kon: 9.1e+06 M⁻¹ s⁻¹

## CC1(C)CN(c2ccc3nccc(C(=O)NCC(=O)N4CSC[C@H]4C#N)c3c2)C(=O)O1 [US20230312550, Example 13]
  koff: 7.6e-05 s⁻¹
  kon: 9.2e+06 M⁻¹ s⁻¹

## N#C[C@@H]1CSCN1C(=O)CNC(=O)c1ccnc2ccc(N3CCC(F)(F)CC3)cc12 [US20230312550, Example 35]
  koff: 0.0001 s⁻¹
  kon: 900000 M⁻¹ s⁻¹

## CS(=O)(=O)C[C@H]1CN(c2ccc3nccc(C(=O)NCC(=O)N4CSC[C@H]4C#N)c3c2)CCO1 [US20230312550, Example 92]
  koff: 0.00011 s⁻¹
  kon: 2.2e+06 M⁻¹ s⁻¹

— BindingDB's records for patent US20230312550 (Astrazeneca, 2023)
